Test results from PMC4961458 (eLife, 2016).

Experiments:
GR = target: T1, GR (Homo sapiens, UniProt P04150); test: GR transcriptional reporter assay, antagonist mode (CV1 cells); type: cell-based
T1 sequence (P04150 1-777): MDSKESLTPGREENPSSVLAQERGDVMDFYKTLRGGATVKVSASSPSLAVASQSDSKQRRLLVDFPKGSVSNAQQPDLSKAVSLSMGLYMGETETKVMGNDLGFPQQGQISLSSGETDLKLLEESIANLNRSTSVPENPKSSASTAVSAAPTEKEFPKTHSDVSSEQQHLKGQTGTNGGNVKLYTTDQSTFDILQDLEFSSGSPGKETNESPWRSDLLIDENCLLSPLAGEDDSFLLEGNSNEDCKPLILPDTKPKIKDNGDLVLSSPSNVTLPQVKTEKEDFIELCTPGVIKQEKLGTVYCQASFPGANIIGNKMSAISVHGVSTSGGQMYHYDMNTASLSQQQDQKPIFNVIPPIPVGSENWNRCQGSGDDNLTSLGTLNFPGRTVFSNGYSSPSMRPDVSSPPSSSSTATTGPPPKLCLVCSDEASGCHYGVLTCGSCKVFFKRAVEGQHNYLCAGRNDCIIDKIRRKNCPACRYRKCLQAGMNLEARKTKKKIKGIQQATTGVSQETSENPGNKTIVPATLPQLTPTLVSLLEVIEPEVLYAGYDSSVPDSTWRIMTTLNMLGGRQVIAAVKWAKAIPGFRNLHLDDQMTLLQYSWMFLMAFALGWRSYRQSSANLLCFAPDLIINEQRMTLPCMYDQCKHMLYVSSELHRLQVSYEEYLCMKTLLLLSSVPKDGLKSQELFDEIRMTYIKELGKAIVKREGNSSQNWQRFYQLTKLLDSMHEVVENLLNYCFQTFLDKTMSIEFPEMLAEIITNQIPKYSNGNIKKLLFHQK
Protocol: CV1 cells were maintained in MEM supplemented with 10% FBS. Transcriptional assays were performed by seeding 12 mL of cells at a density of 250,000 cells/mL into a T-75 cell culture flask in MEM supplemented with 5% charcoal-stripped serum and allowed to attach overnight. Cells were transiently transfected using FuGENE 6 (Roche Applied Science). […] Transfected cells were incubated overnight then split into four 96-well tissue culture plates and incubated for 4 hr followed by compound addition. […] The final agonist concentration used in the antagonist assays was 10 nM.

[1] = GDC-0810 mouse pharmacokinetics
ER = system: ER; parameters: method as in van Kruchten et al., 2015; conditions: 500 mg dose, 6/16 patients; ref van Kruchten et al., 2015; cited from earlier work
[2] = Fulvestrant plasma concentrations in mice

## CC/C(=C(\c1ccc(O)cc1)c1ccc(OCCN(C)C)cc1)c1ccccc1 [4-OH Tam, 4-hydroxytamoxifen]
GR
  IC50: 1.47 ± 1.18 µM

## CC/C(=C(/c1ccc(/C=C/C(=O)O)cc1)c1ccc2[nH]ncc2c1)c1ccc(F)cc1Cl [GDC-0810]
[1]
  Oral %F: 61%
[1]; oral gavage, 10 mg/kg/day
  Clast: 7 ng/mL
[1]; oral gavage, 30 mg/kg/day
  Clast: 13 ng/mL
[1]; oral gavage, 100 mg/kg/day
  AUC(0-t): 94100 ng·h/mL
[1]; plasma
  half-life: 2.6 h
[1]; plasma, intravenous
  Vd: 1.2 L/kg
  clearance: 11 mL/min/kg
[1]; plasma, po
  AUC(0-inf): 8800 ng·h/mL
  Cmax: 4400 ng/mL
[1]; plasma, po, 10 mg/kg/day
  AUC(0-t): 5500 ng·h/mL
  Cmax: 1640 ng/mL
  Tmax: 1 h
  half-life: 8 h
[1]; plasma, po, 30 mg/kg/day
  AUC(0-t): 21500 ng·h/mL
  Cmax: 5330 ng/mL
  Tmax: 1 h
  half-life: 4 h
[1]; plasma, po, 100 mg/kg/day
  AUC(0-t): 94100 ng·h/mL
  Cmax: 9310 ng/mL
  Tmax: 8 h
  concentration at 24 h: 216 ng/mL
  half-life: 3 h

## C[C@]12CC[C@@H]3c4ccc(O)cc4C[C@@H](CCCCCCCCC[S+]([O-])CCCC(F)(F)C(F)(F)F)[C@H]3[C@@H]1CC[C@@H]2O (stereo partly shown) [Fulvestrant]
ER
  patients with incomplete inhibition of [18F]fluoroestradiol uptake: 38 % of patients
[2]; 50 mg/kg Days 1, 3 & 8, 25 mg/kg Days 15 & 22, Day 21, Time 0 hr
  Plasma Conc Mean: 15 ng/mL
[2]; 200 mg/kg 3x/wk, Day 28, Time 0 hr
  Plasma Conc Mean: 731 ng/mL
[2]; 200 mg/kg 3x/wk, Day 57, Time 0 hr
  Plasma Conc Mean: 665 ng/mL
[2]; mice, 200 mg/kg dose, 3 times per week
  plasma concentrations (exposure) on average: 12000 to 14000 ng·h/mL
